pIC50: −log10 of the molar value.
Target: Human recombinant DHX9 protein (Homo sapiens (Human), UniProt Q08211)
Experiment: DHX9 ATPase assay (ADP-Glo)
Type: biochemical
Conditions: for pIC50: read-out: DHX9 Biochemical Inflection Point

Sequence of Human recombinant DHX9 protein (Q08211 whole entry): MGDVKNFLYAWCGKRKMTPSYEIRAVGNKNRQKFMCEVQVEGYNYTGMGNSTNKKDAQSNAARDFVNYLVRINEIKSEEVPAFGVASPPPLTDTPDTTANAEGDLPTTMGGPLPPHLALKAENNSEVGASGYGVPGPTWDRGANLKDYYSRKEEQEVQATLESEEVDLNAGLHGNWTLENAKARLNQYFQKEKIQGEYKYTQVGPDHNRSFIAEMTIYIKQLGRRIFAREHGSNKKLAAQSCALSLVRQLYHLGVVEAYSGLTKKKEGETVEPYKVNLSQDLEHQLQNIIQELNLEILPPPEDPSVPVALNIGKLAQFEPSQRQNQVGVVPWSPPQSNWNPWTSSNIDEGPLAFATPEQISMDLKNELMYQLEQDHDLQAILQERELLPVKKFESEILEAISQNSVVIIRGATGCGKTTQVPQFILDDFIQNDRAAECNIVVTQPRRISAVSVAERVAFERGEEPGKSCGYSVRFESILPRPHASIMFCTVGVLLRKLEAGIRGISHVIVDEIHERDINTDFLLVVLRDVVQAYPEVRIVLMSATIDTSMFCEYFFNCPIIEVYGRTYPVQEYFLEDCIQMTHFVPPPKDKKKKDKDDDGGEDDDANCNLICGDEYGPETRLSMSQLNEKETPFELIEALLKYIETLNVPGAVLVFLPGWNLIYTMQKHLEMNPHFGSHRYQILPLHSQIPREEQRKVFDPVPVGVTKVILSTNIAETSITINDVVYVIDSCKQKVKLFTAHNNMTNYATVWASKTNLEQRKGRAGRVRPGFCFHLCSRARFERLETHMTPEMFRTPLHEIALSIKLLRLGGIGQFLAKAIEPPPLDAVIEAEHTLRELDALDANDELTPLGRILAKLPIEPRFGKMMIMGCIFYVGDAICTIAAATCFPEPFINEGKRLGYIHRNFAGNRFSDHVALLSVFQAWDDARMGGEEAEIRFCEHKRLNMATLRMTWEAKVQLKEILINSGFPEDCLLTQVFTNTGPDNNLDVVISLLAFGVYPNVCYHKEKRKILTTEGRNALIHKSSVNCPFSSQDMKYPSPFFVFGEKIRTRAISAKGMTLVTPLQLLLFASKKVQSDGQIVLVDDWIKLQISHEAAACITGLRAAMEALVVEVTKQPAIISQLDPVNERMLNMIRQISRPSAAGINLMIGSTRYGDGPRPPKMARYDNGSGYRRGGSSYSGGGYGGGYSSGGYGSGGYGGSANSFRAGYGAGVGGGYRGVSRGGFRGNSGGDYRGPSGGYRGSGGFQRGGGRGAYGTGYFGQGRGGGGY

Row | SMILES | DHX9 Biochemical Max Inhibition | pIC50
1 | CCOc1ccc(-n2cc(C(=O)Nc3cc(Cl)cc(NS(C)(=O)=O)c3)cc2C)nc1 [Example 437] | 84.2 | 7.81
2 | Cc1sc(C(=O)Nc2cc(Cl)cc(NS(C)(=O)=O)c2)cc1-c1ncc(F)cc1-c1cnco1 [Example 705] | 55.6 | 7.72
3 | CS(=O)(=O)Nc1cc(Cl)cc(NC(=O)c2cnn(-c3ccccc3Oc3cccnc3)c2)c1 [Example 264] | 56.7% | 6.92
4 | CCOc1cnc(-c2csc(C(=O)Nc3cc(Cl)cc(NS(C)(=O)=O)c3)c2)nc1 [Example 342] | 73.6% | 7.48
5 | Cc1sc(C(=O)Nc2cc(Cl)cc(NS(C)(=O)=O)c2)cc1-c1ncc(N2CC[Si](C)(C)CC2)cc1F [Example 473] | 54.5 | 6.50
6 | Cn1cc(C(=O)Nc2cc(Cl)cc(NS(C)(=O)=O)c2)cc1-c1cc(N2CC(F)(F)C2)ccn1 [Example 552] | 89.7 | 7.78
7 | CCS(=O)(=O)Nc1cc(Cl)cc(NC(=O)c2cc(C)n(-c3ncc(F)cc3F)c2)c1 [Example 445] | 70.5 | 7.09
8 | Cc1cccnc1-c1csc(C(=O)Nc2cc(Br)cc(NS(C)(=O)=O)c2)c1 [Example 33] | 61.7% | 8.32
9 | CS(=O)(=O)Nc1cc(Cl)cc(NC(=O)c2cc3cc(Cl)ccc3s2)c1 [Example 298] | 58.8% | 5.38
10 | CS(=O)(=O)Nc1cc(Cl)cc(NC(=O)c2cc(C(=O)N3CC4(CNC4)C3)n(-c3ccccn3)c2)c1 [Example 643] | 61.4 | 7.39
11 | CS(=O)(=O)Nc1cc(Cl)cc(NC(=O)c2cc(-c3cccnc3)cs2)c1 [Example 116, N-(3-chloro-5-(methylsulfonamido)phenyl)-4-(pyridin-3-yl)thiophene-2-carboxamide] | 56.6% | –
12 | Cc1cc(C(=O)Nc2cc(F)cc(NS(C)(=O)=O)c2)c[nH]1 [Example 5] | 74.6% | 6.67
13 | CN(C)C(=O)c1sc(C(=O)Nc2cc(Cl)cc(NS(C)(=O)=O)c2)cc1-c1ncccc1OCc1ccccc1 [Example 213] | 71.6% | 7.79
14 | CN1CC(Oc2cnc(-c3cc(C(=O)Nc4cc(Cl)cc(NS(C)(=O)=O)c4)cn3CC(F)(F)F)c(F)c2)C1 [Example 638] | 70.5 | 7.86
15 | COCc1cnc(-c2cc(C(=O)Nc3cc(Cl)cc(NS(C)(=O)=O)c3)cn2C)nc1 [Example 690] | 75.8 | 8.14
16 | Cc1cccnc1-c1csc(C(=O)Nc2cc(Cl)cc(N(C)S(C)(=O)=O)c2)c1 [Example 374] | 60% | 6.24
17 | COc1cc(N2CC(F)(F)C2)cnc1-c1cc(C(=O)Nc2cc(Cl)cc(NS(C)(=O)=O)c2)sc1C [Example 535] | 84.2 | 8.47
18 | CS(=O)(=O)Nc1cc(Br)cc(NC(=O)c2cnn(-c3cccc(C#N)c3)c2)c1 [Example 52] | 37.9% | 6.70

Row | SMILES | DHX9 Biochemical Max Inhibition | pIC50
19 | CCc1sc(C(=O)Nc2cc(Cl)cc(NS(C)(=O)=O)c2)cc1-c1ncccc1F [Example 587] | 70.9 | 7.78
20 | Cc1cnc(-n2cc(C(=O)Nc3cc(Cl)cc(NS(C)(=O)=O)c3)cn2)c(OCc2cnco2)c1 [Example 261] | 71% | 7.32
21 | CCCS(=O)(=O)Nc1cc(Cl)cc(NC(=O)c2cc(-c3ncccc3C)cs2)c1 [Example 372] | 49.2% | 6.40
22 | CS(=O)(=O)Nc1cc(Cl)cc(NC(=O)c2cnn(-c3ncccc3-c3cncc(F)c3)c2)c1 [Example 392] | 79.3 | 8.54
23 | CS(=O)(=O)Nc1cc(Br)cc(NC(=O)c2cnn(-c3cc(C#N)ccc3OCc3ccccc3)c2)c1 [Example 67] | 54% | 6.81
24 | CS(=O)(=O)Nc1cc(Br)cc(NC(=O)c2cc(-c3cnccn3)cs2)c1 [Example 18] | 61% | 8.07
25 | CS(=O)(=O)Nc1cc(Cl)cc(NC(=O)c2cc(-c3ncc(N4CC(F)(F)C4)cc3F)cs2)c1 [Example 488] | 61.1 | 7.17
26 | CS(=O)(=O)Nc1cc(Cl)cc(NC(=O)c2cc(-c3ncc(F)cn3)c(Cl)s2)c1 [Example 450] | 62.8 | 7.10
27 | Cn1cc(C(=O)Nc2cc(Cl)cc(NS(C)(=O)=O)c2)cc1-c1ncc(N2CC3(C2)CC(F)(F)C3)cn1 [Example 492] | 62.3 | 8.18
28 | Cn1cc(C(=O)Nc2cc(Cl)cc(NS(C)(=O)=O)c2)cc1-c1ncc(N2CCC3(CC2)CC3(F)F)cc1F [Example 518] | 56.7 | 6.82
29 | CCS(=O)(=O)Nc1cc(Cl)cc(NC(=O)c2cc(C)n(-c3ccc(N4CCOCC4)cn3)c2)c1 [Example 249] | 64.1% | 8.55
30 | Cc1sc(C(=O)Nc2cc(Cl)cc(NS(C)(=O)=O)c2)cc1-c1ncc(OC(C)C(=O)O)cn1 (centres unmarked) [Example 671] | 68.8 | 8.17
31 | Cc1sc(C(=O)Nc2cc(Cl)cc(NS(C)(=O)=O)c2)cc1-c1ncc(OC(C)(C)CO)cn1 [Example 678] | 71.3 | 8.24
32 | CN(C)CCOc1cnc(-c2cc(C(=O)Nc3cc(Cl)cc(NS(C)(=O)=O)c3)cn2C)c(F)c1 [Example 646] | 66.6 | 8.10
33 | COc1cnc(-c2cc(C(=O)Nc3cc(Cl)cc(NS(C)(=O)=O)c3)cn2C)c(F)c1 [Example 454] | 82.9 | 8.30
34 | Cc1sc(C(=O)Nc2cc(Cl)cc(NS(C)(=O)=O)c2)cc1-c1ncc(N2CCC3(C2)CC3(F)F)cc1F (centres unmarked) [Example 480] | 67.4 | 6.84
35 | Cc1cc(C(=O)Nc2cc(Cl)cc(NS(C)(=O)=O)c2)cn1-c1ccc(N2CCC(F)(F)C2)cn1 [Example 396] | 68.9 | 8.44
36 | CS(=O)(=O)Nc1cc(Cl)cc(NC(=O)c2cnn(CCc3ccccc3)c2)c1 [Example 308] | 60.6% | 6.43
